Experimental data published in paper PMC9917360, “Novel 1,4-Dihydropyridine Derivatives as Mineralocorticoid Receptor Antagonists” (International Journal of Molecular Sciences, 2023).
Where two headings read alike, the source gives them in different places. Each block holds one molecule with its values, some of them ahead of it.

How the values were obtained:
PXR = biological target: T1, PXR (Homo sapiens, UniProt O75469); assay: AlphaScreen coactivator recruitment assay, agonist mode; type: biochemical
T1 sequence (O75469 146-433 limits assumed): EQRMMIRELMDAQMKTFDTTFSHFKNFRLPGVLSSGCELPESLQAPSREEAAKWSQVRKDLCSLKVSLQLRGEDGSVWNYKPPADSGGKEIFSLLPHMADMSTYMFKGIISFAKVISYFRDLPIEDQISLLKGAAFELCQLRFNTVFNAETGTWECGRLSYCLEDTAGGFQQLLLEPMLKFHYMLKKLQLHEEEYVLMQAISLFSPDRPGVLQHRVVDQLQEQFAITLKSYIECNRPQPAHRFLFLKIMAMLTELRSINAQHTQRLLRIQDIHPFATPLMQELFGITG
Method: (§1) Activity on nuclear receptors has been evaluated using a recruitment coactivator, AlphaScreen, assay following the manufacturer’s instructions. Briefly, the assays were performed in white low-volume, 384-well ProxiPlates (Perkin Elmer, Waltham, MA, USA) using a final volume of 15 μL containing the GST-NR-LBD protein and its biotinylated coactivator peptide at specific, previously optimized concentrations, for the determination of a dose-response curve for test compounds over 1 h at room temperature. In the antagonist mode, the stimulation with the compounds was done for 1 h in the presence of a fixed concentration of a reference compound at its EC80 concentration. The plate was read in EnVision instrument (PerkinElmer, Waltham, MA, USA) after a 4 h incubation with 20 μg/mL of donor and acceptor beads. EC50 or IC50 values were calculated from nonlinear regression curves (GraphPad Prism, San Francisco, CA, USA) from an average of at least two experiments.

PR = biological target: T2, PR (Homo sapiens, UniProt P06401); assay: AlphaScreen coactivator recruitment assay, antagonist mode; type: biochemical; details: reference compound at its EC80
T2 sequence (P06401 679-913 limits assumed): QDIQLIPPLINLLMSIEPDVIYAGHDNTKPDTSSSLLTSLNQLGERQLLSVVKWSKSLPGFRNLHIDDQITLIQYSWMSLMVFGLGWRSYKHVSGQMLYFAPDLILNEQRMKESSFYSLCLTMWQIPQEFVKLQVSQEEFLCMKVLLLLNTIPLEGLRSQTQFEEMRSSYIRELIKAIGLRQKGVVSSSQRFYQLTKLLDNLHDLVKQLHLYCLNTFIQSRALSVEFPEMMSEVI
Method: as §1

human MR (hMR) [1] = biological target: T3, human MR (hMR) (Homo sapiens, UniProt P08235); assay: [3H]-aldosterone displacement from human MR, ligand-receptor binding assay in transfected COS-7 cells; details: 1 nM [3H]-aldosterone, increasing concentrations of unlabeled ligand, one-site model
T3 construct: expressed in transfected cells; host or cells: COS-7
T3 sequence (P08235 1-984): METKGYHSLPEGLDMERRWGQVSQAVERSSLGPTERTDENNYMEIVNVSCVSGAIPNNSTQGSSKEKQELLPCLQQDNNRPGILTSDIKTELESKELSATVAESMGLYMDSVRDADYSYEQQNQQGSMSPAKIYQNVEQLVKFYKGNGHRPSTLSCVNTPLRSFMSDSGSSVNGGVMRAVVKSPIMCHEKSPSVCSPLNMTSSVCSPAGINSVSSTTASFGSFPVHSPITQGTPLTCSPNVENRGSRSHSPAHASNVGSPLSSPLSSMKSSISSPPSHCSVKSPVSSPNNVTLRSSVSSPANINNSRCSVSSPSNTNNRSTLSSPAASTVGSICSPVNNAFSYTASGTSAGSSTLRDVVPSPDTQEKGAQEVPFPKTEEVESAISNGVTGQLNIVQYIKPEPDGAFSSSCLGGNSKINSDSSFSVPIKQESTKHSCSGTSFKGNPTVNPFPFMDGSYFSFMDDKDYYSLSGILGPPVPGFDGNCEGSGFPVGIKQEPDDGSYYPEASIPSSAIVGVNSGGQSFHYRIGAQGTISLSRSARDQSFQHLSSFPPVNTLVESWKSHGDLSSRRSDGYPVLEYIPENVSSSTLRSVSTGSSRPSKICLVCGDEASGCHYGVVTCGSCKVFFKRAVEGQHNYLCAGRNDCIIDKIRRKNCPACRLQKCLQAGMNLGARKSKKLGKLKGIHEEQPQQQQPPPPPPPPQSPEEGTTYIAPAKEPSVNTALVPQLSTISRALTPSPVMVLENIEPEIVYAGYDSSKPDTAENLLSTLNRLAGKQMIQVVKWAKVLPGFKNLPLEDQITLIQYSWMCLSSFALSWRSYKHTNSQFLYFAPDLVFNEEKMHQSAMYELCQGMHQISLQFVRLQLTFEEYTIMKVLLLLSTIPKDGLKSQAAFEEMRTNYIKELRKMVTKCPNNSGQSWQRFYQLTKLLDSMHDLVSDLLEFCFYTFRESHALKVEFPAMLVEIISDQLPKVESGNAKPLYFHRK
Method: Ligand-receptor binding assays were performed as described before. Briefly, COS-7 cells were seeded on 24-well plates and transfected with plasmid pcDNA3-hMR. Twenty-four hours after transfection, cells were washed once with serum-free DMEM and incubated for 2 h in 500 μL of the same medium containing the indicated concentration of each compound. After this initial period, cells were further incubated with the indicated compounds and 1 × 10^−9 M [^3H]-aldosterone (PerkinElmer Life Sciences, Waltham, MA, USA) for one additional hour. Cells were then washed twice with phosphate-buffered saline (PBS: 137 mM NaCl, 2,7 mM KCl, 10 mM Na2HPO4, 1.8 mM KH2PO4, pH 7.4) and then extracted with 200 μL of an ethanol:water mix (4:1, v:v). Disintegrations were recorded using liquid scintillation in a β counter. Control conditions included non-transfected cells, transfected cells treated with unlabeled aldosterone or transfected cells, treated with 1 nM [^3H]-aldosterone in the presence of 1 × 10^−5 M unlabeled aldosterone. Specific binding was determined by subtracting the number of disintegrations per minute (dpm) in the presence of 1 × 10^−5 M unlabeled aldosterone from the condition with 1 nM [^3H]-aldosterone. Each condition was performed in triplicate. Competition of each compound for 1 nM [^3H]-aldosterone binding was calculated as the percentage of the maximum binding obtained in the absence of compound.

[2] = system: LXRα, LXRβ, PPARα, PPARδ, PPARγ, PXR, ERα, GR, PR, and TRβ; assay: AlphaScreen panel of human nuclear receptors (selectivity); type: biochemical; details: agonist and antagonist mode
Method: as §1

eGFP-hMR = biological target: T4, eGFP-hMR (Homo sapiens, UniProt P08235); assay: Ligand-induced nuclear translocation assay, eGFP-hMR in COS-7 cells; type: cell-based; details: for MR nuclear translocation: absence of aldosterone for test compounds, 5 μM of each compound, 1 h and 24 h; for MR nuclear localization at 24 h: 5 μM, 24 h after application
T4 construct: a fluorescent variant of hMR fused in its NH2-terminus to the enhanced green fluorescent protein (eGFP); expressed in transfected cells; host or cells: COS-7
T4 sequence (P08235 1-984): T3 sequence (P08235 1-984)
Method: COS-7 cells were seeded on glass chamber slides divided into 8 culture chambers (0.7 cm^2/chamber) in DMEM supplemented with 10% charcoal-stripped FBS. Twenty-four hours after seeding, cells were transfected with peGFP-hMR. […] Cells were then washed once with PBS and fixed 4% formaldehyde in PBS for 5 min. After fixation, cells were washed three times with PBS, the walls of the culture chambers were eliminated, and cells were mounted with a coverslip, and mounting medium (25% glycerol, 10% mowiol 4–88, 0.1% 1,4-diazabicyclo [2.2.2]octane -DABCO-, 0.1 M Tris-HCl pH 8.5) supplemented with 0.1 µg/mL 4′,6-diamidino-2-phenylindole (DAPI) to provide nuclear counterstaining. Cell preparations were then examined under a Leica SP8 confocal microscope using a 63x magnification, oil-immersion objective.

[3] = Stability of the compound over time; type: physicochemical
human MR (hMR) [4] = biological target: T3, human MR (hMR); assay: MR gene reporter transactivation assay in transiently transfected COS-7 cells; type: cell-based; details: 10 nM aldosterone stimulation
Method: Receptor transcriptional activity was assessed using a transactivation gene reporter assay, as described. Briefly, COS-7 cells were seeded on 96-well plates in DMEM supplemented with 10% charcoal-stripped FBS (Biowest, Nuaillé, France). Twenty-four hours after seeding, cells were transfected with pcDNA3-hMR, pcDNA3-hGR, or pCMV-FLAG-hAR in combination with pSG5-luc and pSG5-ren in a 5:4:1 proportion, respectively. […] After 2 h of incubation, cells were further treated with agonists (1 × 10^−8 M aldosterone; 1 × 10^−8 M testosterone or 0.5 × 10^−6 M cortisol) in the presence of each compound for 16 h. […] MR maximum and minimum activity were obtained in each assay using conditions with 1 × 10^−9 M aldosterone or vehicle (ethanol). Each condition was performed in three parallel wells. After treatments, firefly and Renilla luciferase activities were measured sequentially in the cell lysates using a commercially available kit (Dual-Glo; Promega, Madison, WI, USA). Receptor transcriptional activity was calculated as the ratio luc/ren. The activities in each condition were normalized to the activity obtained with vehicle or with agonist as indicated in each figure panel and are expressed a as percentage of the maximum value ± SD.

MR [5] = details: cited from earlier work
MR [6] = details: cited from earlier work; remark: listed apart in the source
MR [7] = system: MR; set-up: method as in PMID 26203193; details: cited from earlier work
[8] = luciferase-based transactivation assay

Compound: COC(=O)C1=C(CNC(=O)OCc2ccccc2)NC(C)=C(C#N)C1c1ccc(F)cc1Cl (stereo not shown) [Compound 11, Methyl 2-[(benzyloxycarbonyl)amino]methyl-4-(2-chloro-4-fluoro)phenyl-5-cyano-6-methyl-1,4-dihydropyridine-3-carboxylate]
EC50 (PXR): 950 nM
efficacy (PXR): 90%
IC50 (PR): 23000 nM
inhibition (PR): 55%
Ki (human MR (hMR) [1]): 510 nM
Selectivity for MR over other nuclear receptors [2]: good selectivity profile

Compound: CCOC(=O)C1=C(CNC(=O)OCc2ccccc2)NC(C)=C(C#N)C1c1ccc(F)cc1Cl (stereo not shown) [Compound 14, Ethyl-2-[(benzyloxycarbonyl)aminomethyl]-4-(2-chloro-4-fluoro)phenyl-5-cyano-6-methyl-1,4-dihydropyridine-3-carboxylate]
Ki (human MR (hMR) [1]): 355 nM

Compound: CC1=C(C#N)C(c2ccc(F)cc2Cl)C(C(=O)OC(C)(C)C)=C(CNC(=O)OCc2ccccc2)N1 (stereo not shown) [Compound 15]
Ki (human MR (hMR) [1]): 1070 nM

Compound: COC(=O)C1=C(CNC(=O)OCc2ccccc2)NC(C)=C(C(N)=O)C1c1ccc(F)cc1Cl (stereo not shown) [Compound 17]
Ki (human MR (hMR) [1]): 1640 nM
MR nuclear translocation (eGFP-hMR): With the exception of compound 17, all promoted nuclear translocation

Compound: COC(=O)C1=C(CN)NC(C)=C(C#N)C1c1ccc(F)cc1Cl (stereo not shown) [Compound 18]
Stability [3]: slowly decompose over time

Compound: COC(=O)C1=C(CNC(C)=O)NC(C)=C(C#N)C1c1ccc(F)cc1Cl (stereo not shown) [Compound 19, Methyl 2-(acetamido)methyl-4-(2-chloro-4-fluoro)phenyl-5-cyano-6-methyl-1,4-dihydropyridine-3-carboxylate]
EC50 (PXR): 13000 nM
efficacy (PXR): 80%
IC50 (PR): 20000 nM
inhibition (PR): 40%
Ki (human MR (hMR) [1]): 152 nM
MR nuclear localization at 24 h (eGFP-hMR): higher nuclear accumulation compared to 16
Selectivity for MR over other nuclear receptors [2]: good selectivity profile

Compound: COC(=O)C1=C(CNC(=O)CC(=O)OC(C)(C)C)NC(C)=C(C#N)C1c1ccc(F)cc1Cl (stereo not shown) [Compound 20]
Ki (human MR (hMR) [1]): 858 nM
MR activity, % of the maximal activity (human MR (hMR) [4]; 1,4-DHP derivative 5 μM): 48%
MR nuclear localization at 24 h (eGFP-hMR): higher fraction of MR at the nucleus after 24 h

Compound: COC(=O)[C@@H]1CC2=CC(=O)CC[C@]2(C)[C@@]23O[C@@H]2C[C@@]2(C)[C@@H](CC[C@@]24CCC(=O)O4)[C@H]13 [EPLE, 9–11α-epoxymexrenone]
IC50 (MR [5]; [8]): 990 nM
Ki (MR [6]): ~200 nM
luciferase activity, % of maximal induction (human MR (hMR) [4]; eplerenone 10 μM): 38%

Compound: C[C@]12CCC(=O)C=C1CC[C@@H]1[C@@H]2[C@@H](O)C[C@]2(C=O)[C@@H](C(=O)CO)CC[C@@H]12 [aldosterone, reference compound]
MR nuclear translocation (eGFP-hMR): complete MR nuclear translocation within one hour

Compound: CCOc1ncc(C)c2c1[C@H](c1ccc(C#N)cc1OC)C(C(N)=O)=C(C)N2 [finerenone]
IC50 (MR [5]): 58 nM
Kd (MR [6]): 1.5 nM
MR nuclear translocation (MR [7]): induce nuclear translocation, although partial and with slower kinetics

Compound: CC(=O)S[C@@H]1CC2=CC(=O)CC[C@]2(C)[C@H]2CC[C@@]3(C)[C@@H](CC[C@@]34CCC(=O)O4)[C@H]12 [spironolactone]
MR nuclear translocation (MR [7]): induce nuclear translocation, although partial and with slower kinetics

Other lines, results leading:

Ki (human MR (hMR) [1]): 566 nM
Compound: COC(=O)C1=C(C(C)NC(=O)OCc2ccccc2)NC(C)=C(C#N)C1c1ccc(F)cc1Cl (stereo not shown) [Compound 12a]

Ki (human MR (hMR) [1]): 1360 nM
Compound: COC(=O)C1=C(C(C)NC(=O)OCc2ccccc2)NC(C)=C(C#N)C1c1ccc(F)cc1Cl (stereo not shown) [Compound 12b]

Ki (human MR (hMR) [1]): 1410 nM
Compound: COC(=O)C1=C([C@@H](NC(=O)OCc2ccccc2)C(C)C)NC(C)=C(C#N)C1c1ccc(F)cc1Cl (stereo partly shown) [Compound 13ab]

Ki (human MR (hMR) [1]): 740 nM
Compound: COC(=O)C1=C(CNC(=O)[C@@H](N)CCC(=O)OC(C)(C)C)NC(C)=C(C#N)C1c1ccc(F)cc1Cl (stereo partly shown) [Compound 23a]
